Experimental data from PubChem BioAssay AID192 (DTP/NCI, 2004).
“And” between values parts separate entries of the source, which are not always exact repeats. Identical values can stand only once. Toxic doses and inconclusive results are not listed.

Test system: BDF1 mice, B16 melanoma ip, median survival T/C
Assay: NCI In Vivo Anticancer Drug Screen. Data for tumor model B16 Melanoma (intraperitoneal) in B6D2F1 (BDF1) mice
Details: endpoint: median survival time, higher = longer survival
Method in brief: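 Tumor-bearing mice received test compound or vehicle. Survival or tumor size was then measured in both groups. The treated-group figure was divided by the control-group figure.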

[1] = dose: 12.5 mg/kg/injection, schedule: Q04DX003 (ip), vehicle: saline
[2] = dose: 25.0 mg/kg/injection, schedule: Q04DX003 (ip), vehicle: saline
[3] = dose: 50.0 mg/kg/injection, schedule: Q04DX003 (ip), vehicle: saline
[4] = dose: 100.0 mg/kg/injection, schedule: Q04DX003 (ip), vehicle: Klucel (hydroxypropylcellulose) (HPC)
[5] = dose: 100.0 mg/kg/injection, schedule: Q04DX003 (ip), vehicle: saline with Tween-80
[6] = dose: 100.0 mg/kg/injection, schedule: Q04DX003 (ip), vehicle: saline
[7] = dose: 200.0 mg/kg/injection, schedule: Q04DX003 (ip), vehicle: saline
[8] = dose: 25.0 mg/kg/injection, schedule: Q01DX009 (ip), vehicle: saline with Tween-80
[9] = dose: 50.0 mg/kg/injection, schedule: Q01DX009 (ip), vehicle: saline with Tween-80
[10] = dose: 100.0 mg/kg/injection, schedule: Q01DX009 (ip), vehicle: saline with Tween-80
[11] = dose: 100.0 mg/kg/injection, schedule: Q01DX009 (ip), vehicle: Klucel (hydroxypropylcellulose) (HPC)
[12] = dose: 200.0 mg/kg/injection, schedule: Q01DX009 (ip), vehicle: Klucel (hydroxypropylcellulose) (HPC)
[13] = dose: 400.0 mg/kg/injection, schedule: Q01DX009 (ip), vehicle: Klucel (hydroxypropylcellulose) (HPC)
[14] = dose: 200.0 mg/kg/injection, schedule: Q01DX009 (ip), vehicle: saline with Tween-80
[15] = dose: 400.0 mg/kg/injection, schedule: Q01DX009 (ip), vehicle: saline with Tween-80
[16] = dose: 50.0 mg/kg/injection, schedule: Q01DX009 (ip), vehicle: Klucel (hydroxypropylcellulose) (HPC)
[17] = dose: 12.5 mg/kg/injection, schedule: Q01DX009 (ip), vehicle: saline with Tween-80
[18] = dose: 25.0 mg/kg/injection, schedule: Q01DX009 (ip), vehicle: Klucel (hydroxypropylcellulose) (HPC)
[19] = dose: 200.0 mg/kg/injection, schedule: Q04DX003 (ip), vehicle: Klucel (hydroxypropylcellulose) (HPC)
[20] = dose: 400.0 mg/kg/injection, schedule: Q04DX003 (ip), vehicle: Klucel (hydroxypropylcellulose) (HPC)

O=C(CCN1CCCCC1)c1cccc([N+](=O)[O-])c1
T/C [1]: 105 % of control
T/C [2]: 113 % of control
T/C [3]: 100 % of control
T/C [4]: 94 % of control

CC(=O)OC1C2CCC(C2)C1C (centres undefined)
T/C [5]: 105 % of control
T/C (dose: 200.0 mg/kg/injection, schedule: Q04DX003 (ip), vehicle: saline with Tween-80): 100 % of control
T/C (dose: 400.0 mg/kg/injection, schedule: Q04DX003 (ip), vehicle: saline with Tween-80): 97 % of control

COc1cccc2c1C(=O)c1c(O)c3c(c(O)c1C2=O)C[C@@](O)(C(=O)CO)C[C@@H]3OC1CC(N(C)C)C(O)C(C)O1 (some centres undefined)
T/C (dose: 0.63 mg/kg/injection, schedule: Q01DX001 (ip), vehicle: water): 119 % of control
T/C (dose: 1.73 mg/kg/injection, schedule: Q04DX003 (ip), vehicle: water): 98 % of control
T/C (dose: 3.6 mg/kg/injection, schedule: Q01DX001 (ip), vehicle: water): 117 % of control
T/C (dose: 4.8 mg/kg/injection, schedule: Q04DX003 (ip), vehicle: water): 94 % of control and 113 % of control
T/C (dose: 5.0 mg/kg/injection, schedule: Q01DX001 (ip), vehicle: water): 166 % of control and 170 % of control
T/C (dose: 6.0 mg/kg/injection, schedule: Q01DX001 (ip), vehicle: water): 104 % of control

ClC(Cl)(Cl)c1ccc(C(Cl)(Cl)Cl)cc1
T/C [3]: 102 % of control
T/C [6]: 95 % of control
T/C [7]: 95 % of control

CSCCC(C)C
T/C [8]: 95 % of control
T/C [9]: 89 % of control
T/C (dose: 50.0 mg/kg/injection, schedule: Q04DX003 (ip), vehicle: saline with Tween-80): 110 % of control
T/C [10]: 95 % of control
T/C [5]: 97 % of control

CCOC(=O)Nc1ccc([N+](=O)[O-])cc1
T/C [11]: 113 % of control
T/C [12]: 103 % of control

CCCCC(CCCC)(C(N)=O)C(=O)OCC
T/C [11]: 106 % of control
T/C [12]: 100 % of control
T/C [13]: 103 % of control

CCCCNC(=O)Nc1cc(C)c(C)cc1C
T/C (dose: 50.0 mg/kg/injection, schedule: Q01DX009 (ip), vehicle: gum acacia): 95 % of control
T/C (dose: 100.0 mg/kg/injection, schedule: Q01DX009 (ip), vehicle: gum acacia): 99 % of control
T/C (dose: 200.0 mg/kg/injection, schedule: Q01DX009 (ip), vehicle: gum acacia): 91 % of control

Cc1cc(C)c(NC(=O)Nc2ccc(Cl)cc2)c(C)c1
T/C [11]: 93 % of control
T/C [12]: 93 % of control

Cc1cc(O)c2c(c1O)C(=O)c1cccc(O)c1C2=O
T/C (dose: 0.75 mg/kg/injection, schedule: Q01DX009 (ip), vehicle: Klucel (hydroxypropylcellulose) (HPC)): 92 % of control
T/C (dose: 1.5 mg/kg/injection, schedule: Q01DX009 (ip), vehicle: Klucel (hydroxypropylcellulose) (HPC)): 87 % of control

CCC(C)C(NC=O)C(=O)O (centres undefined)
T/C [9]: 97 % of control
T/C [10]: 95 % of control
T/C [14]: 92 % of control
T/C [15]: 91 % of control

CCCN1CSC(=S)N(CCC)C1
T/C [16]: 89 % of control
T/C [11]: 102 % of control
T/C [12]: 102 % of control

OCC1OCCO1
T/C [10]: 96 % of control
T/C [14]: 93 % of control

CC(=O)OCC1OC(S[As](C)C)C(OC(C)=O)C(OC(C)=O)C1OC(C)=O (centres undefined)
T/C [16]: 107 % of control
T/C [11]: 96 % of control

COc1ccc(C(CC(=O)c2ccc3c(c2)OCO3)C(=O)O)cc1OC (centres undefined)
T/C [11]: 96 % of control
T/C [12]: 100 % of control
T/C [13]: 100 % of control

C1CC[N-]CC1.C1CC[N-]CC1.[Cl][Rh]([Cl])[Cl]
T/C [17]: 100 % of control
T/C [8]: 95 % of control
T/C [9]: 102 % of control
T/C [10]: 94 % of control
T/C [14]: 96 % of control

CC1CCCC(C)N1NC1=NCCO1 (centres undefined)
T/C [17]: 97 % of control
T/C [8]: 102 % of control
T/C [9]: 97 % of control

CCC(=O)Nc1ccc(C)c(Cl)c1
T/C [10]: 105 % of control
T/C [14]: 105 % of control
T/C [15]: 115 % of control

CCc1ccccc1NC(=O)C(c1ccccc1)c1ccccc1
T/C [8]: 99 % of control
T/C [9]: 97 % of control
T/C [10]: 92 % of control

CCOC(=O)C(NC(=O)C(Cc1ccc(N(CCCl)CCCl)cc1)NC(C)=O)C(C)C (centres undefined)
T/C (dose: 1.56 mg/kg/injection, schedule: Q01DX009 (ip), vehicle: saline): 99 % of control
T/C (dose: 3.13 mg/kg/injection, schedule: Q01DX009 (ip), vehicle: saline): 98 % of control
T/C (dose: 6.25 mg/kg/injection, schedule: Q01DX009 (ip), vehicle: saline): 102 % of control
T/C [1]: 105 % of control
T/C [2]: 97 % of control
T/C [3]: 102 % of control

NC(=O)c1ccccc1NC(=O)Nc1ccccc1
T/C [11]: 89 % of control
T/C [12]: 91 % of control
T/C [13]: 89 % of control

CC(C)C[C@H](NC(=O)[C@@H](O)[C@H](N)Cc1ccc(O)cc1)C(=O)O
T/C (dose: 0.05 mg/kg/injection, schedule: Q01DX009 (oral), vehicle: saline): 97 % of control
T/C (dose: 0.5 mg/kg/injection, schedule: Q01DX009 (oral), vehicle: saline): 97 % of control
T/C (dose: 5.0 mg/kg/injection, schedule: Q01DX009 (oral), vehicle: saline): 101 % of control

C/C1=C/C2=CC(C)C[C@@H]2C(=O)[C@]2(C)C(=O)CC(C)(C)[C@H]2CC1=O (some centres undefined)
T/C (dose: 0.13 mg/kg/injection, schedule: Q01DX009 (ip), vehicle: Klucel (hydroxypropylcellulose) (HPC)): 102 % of control
T/C (dose: 0.25 mg/kg/injection, schedule: Q01DX009 (ip), vehicle: Klucel (hydroxypropylcellulose) (HPC)): 96 % of control
T/C (dose: 0.5 mg/kg/injection, schedule: Q01DX009 (ip), vehicle: Klucel (hydroxypropylcellulose) (HPC)): 96 % of control
T/C (dose: 1.0 mg/kg/injection, schedule: Q01DX009 (ip), vehicle: Klucel (hydroxypropylcellulose) (HPC)): 91 % of control

S=P(NCCNP(=S)(N1CC1)N1CC1)(N1CC1)N1CC1
T/C (dose: 12.5 mg/kg/injection, schedule: Q01DX009 (ip), vehicle: Klucel (hydroxypropylcellulose) (HPC)): 118 % of control
T/C [18]: 124 % of control

CCN(CC)CCSC(CO)c1ccccc1 (centres undefined)
T/C [18]: 103 % of control
T/C [16]: 96 % of control
T/C [11]: 93 % of control

S=C1SCN(C2CCCCC2)CN1C1CCCCC1
T/C [4]: 93 % of control
T/C [19]: 90 % of control
T/C [20]: 86 % of control

Brc1cnc(OCc2ccccc2)nc1OCc1ccccc1
T/C [11]: 118 % of control
T/C [12]: 110 % of control
T/C [13]: 107 % of control

COC(=O)C1(C)CCC(c2ccc(OC)cc2)CC1=O (centres undefined)
T/C [16]: 90 % of control
T/C [12]: 87 % of control

O=C1c2cc(Br)cc(Br)c2NCCCC1(Br)Br
T/C (dose: 75.0 mg/kg/injection, schedule: Q04DX003 (ip), vehicle: Klucel (hydroxypropylcellulose) (HPC)): 102 % of control
T/C (dose: 150.0 mg/kg/injection, schedule: Q04DX003 (ip), vehicle: Klucel (hydroxypropylcellulose) (HPC)): 95 % of control
T/C (dose: 300.0 mg/kg/injection, schedule: Q04DX003 (ip), vehicle: Klucel (hydroxypropylcellulose) (HPC)): 96 % of control

O=C(Nc1cccc2ccccc12)Oc1ccccc1Cc1ccccc1
T/C [6]: 100 % of control
T/C [7]: 106 % of control
T/C (dose: 400.0 mg/kg/injection, schedule: Q04DX003 (ip), vehicle: saline): 106 % of control

CCN(C(=O)Nc1ccc(OC)cc1)c1ccccc1C
T/C [4]: 102 % of control
T/C [19]: 102 % of control
T/C [20]: 102 % of control

CC1C2Cc3ccc(O)cc3C1(C)CCN2CC1CC1 (centres undefined)
T/C [18]: 100 % of control
T/C [16]: 94 % of control
T/C [11]: 95 % of control

CCOCCCN
T/C (dose: 50.0 mg/kg/injection, schedule: Q01DX009 (ip), vehicle: saline): 122 % of control
T/C (dose: 100.0 mg/kg/injection, schedule: Q01DX009 (ip), vehicle: saline): 122 % of control

O=C1NC(c2ccccc2)N=C2Oc3ccccc3C=C12 (centres undefined)
T/C (dose: 1.56 mg/kg/injection, schedule: Q01DX009 (ip), vehicle: saline with Tween-80): 107 % of control
T/C (dose: 3.12 mg/kg/injection, schedule: Q01DX009 (ip), vehicle: saline with Tween-80): 109 % of control and 113 % of control
T/C (dose: 6.25 mg/kg/injection, schedule: Q01DX009 (ip), vehicle: saline with Tween-80): 108 % of control and 117 % of control
T/C [17]: 117 % of control
T/C [8]: 117 % of control
